The test system of data set [1] is Phospholipidosis. Briefly: Phospholipidosis-positive literature compound observed in mouse. The format is ADME, organism-based. Conditions: in vivo.
For data set [2], the system named is Phospholipidosis. Briefly: Phospholipidosis-positive literature compound observed in dog. The format is ADME, Canis lupus familiaris.
For data set [3], the system named is Phospholipidosis. Conditions: rat.
Data set [4] has as its system Phospholipidosis. Briefly: Phospholipidosis-positive literature compound observed in monkey. Conditions: cercopithecidae. The format is ADME.
Data set [5] concerns Phospholipidosis. Briefly: Phospholipidosis-positive literature compound observed in human. The format is ADME.
Data set [6] relates to Phospholipidosis. Briefly: Phospholipidosis-positive literature compound observed in rabbit. The format is ADME, Oryctolagus cuniculus.
Data set [7] concerns Phospholipidosis. Briefly: Phospholipidosis-positive literature compound observed in hamster. The following applies: cricetinae.
Data set [8] relates to Phospholipidosis. The data set is described as follows: Phospholipidosis-positive literature compound observed in guinea pig. The class given is ADME, Cavia porcellus.
Data set [9] has as its system Phospholipidosis. Briefly: Phospholipidosis-positive literature compound observed in Rhesus monkey. The format is ADME, Macaca mulatta.

Turning to `C[n+]1ccc(-c2cc[n+](C)cc2)cc1`, the Phospholipidosis entry in the data set with Phospholipidosis [1] is recorded as “Active”.

In the case of `CN(C)C/C=C(/c1ccc(Br)cc1)c1cccnc1` [ZIMELDINE], the Phospholipidosis result in the data set with Phospholipidosis [2] and in the data set with Phospholipidosis [3] was “Active” each time.

Consider `CC(C)N(CCC(CCN1CCCCC1)(C(N)=O)c1ccccc1Cl)C(C)C` (stereo unspecified) [DISOBUTAMIDE], for which the Phospholipidosis entry in the data set with Phospholipidosis [2], in the data set on Phospholipidosis [4] and with Phospholipidosis [3] was “Active” each time.

Consider `NC[C@H]1O[C@H](O[C@H]2[C@H](O)[C@@H](O[C@H]3O[C@H](CO)[C@@H](O)[C@H](N)[C@H]3O)[C@H](N)C[C@@H]2N)[C@H](N)C[C@@H]1O` [TOBRAMYCIN], for which the Phospholipidosis entry in the data set with Phospholipidosis [5] and with Phospholipidosis [3] was “Active” each time.

As to `CCC(c1ccc(OCCN(CC)CC)cc1)C(CC)c1ccc(OCCN(CC)CC)cc1` (stereo unspecified) [CORALGIL], the Phospholipidosis entry with Phospholipidosis [5], in the data set with Phospholipidosis [1], in the data set on Phospholipidosis [2], with Phospholipidosis [6], in the data set with Phospholipidosis [7] and with Phospholipidosis [3] was “Active” throughout.

On to `CC[C@H]1OC(=O)[C@H](C)[C@@H](O[C@H]2C[C@@](C)(OC)[C@@H](O)[C@H](C)O2)[C@H](C)[C@@H](O[C@@H]2O[C@H](C)C[C@H](N(C)C)[C@H]2O)[C@](C)(O)C[C@@H](C)C(=O)[C@H](C)[C@@H](O)[C@]1(C)O` [ERYTHROMYCIN], for which the Phospholipidosis result with Phospholipidosis [2] and in the data set on Phospholipidosis [3] was “Active” throughout.

Take `CC(=O)N1CCN(c2ccc(OCC3COC(Cn4ccnc4)(c4ccc(Cl)cc4Cl)O3)cc2)CC1` (stereo unspecified) [KETOCONAZOLE]: the Phospholipidosis result in the data set with Phospholipidosis [1] is given as “Active”.

On to `CN(C)CCCN(C)[C@H]1CC[C@H]2[C@@H]3CC=C4C[C@@H](O)CC[C@]4(C)[C@H]3CC[C@]12C` [AZACOSTEROL], for which the Phospholipidosis entry with Phospholipidosis [1] is “Active”.

Take `CC[C@H]1CN2CCc3cc(OC)c(OC)cc3[C@@H]2C[C@@H]1C[C@H]1NCCc2cc(OC)c(OC)cc21` [EMETINE]: in the data set with Phospholipidosis [3], the Phospholipidosis result was “Active”.

Consider `CN1CCN(Cc2nc3cccc4c3c([n+]2[O-])-c2ccccc2-4)CC1`, for which the Phospholipidosis result with Phospholipidosis [3] is given as “Active”.

For `CNCCCC12CCC(c3ccccc31)c1ccccc12` [MAPROTILINE], the Phospholipidosis entry in the data set on Phospholipidosis [3] is reported as “Active”.

Regarding `OC(CN1CCCCC1)c1ccc(C=C2c3ccccc3-c3ccccc32)cc1` (stereo unspecified), in the data set on Phospholipidosis [3], the Phospholipidosis entry was “Active”.

For the compound `CCCCc1oc2ccccc2c1C(=O)c1cc(I)c(OCCN(CC)CC)c(I)c1` [AMIODARONE], the Phospholipidosis result in the data set with Phospholipidosis [5] and in the data set on Phospholipidosis [3] was “Active” each time.

Regarding `CN1CCCN(C(c2ccccc2)c2ccc(Cl)cc2)CC1` (stereo unspecified) [HOMOCHLORCYCLIZINE], the Phospholipidosis result in the data set on Phospholipidosis [3] is reported as “Active”.

`CN(C)CCCn1c2c(c3ccccc31)CCCCCC2` [IPRINDOLE]: in the data set on Phospholipidosis [3], the Phospholipidosis entry is “Active”.

On to `NCCc1cc(O)c(O)cc1O` [OXIDOPAMINE], for which the Phospholipidosis result in the data set on Phospholipidosis [3] is recorded as “Active”.

In the case of `CCN[C@@H]1C[C@H](N)[C@@H](O[C@H]2OC(CN)=CC[C@H]2N)[C@H](O)[C@H]1O[C@H]1OC[C@](C)(O)[C@H](NC)[C@H]1O` [NETILMICIN], the Phospholipidosis entry in the data set with Phospholipidosis [3] is “Active”.

As to `Cc1ccc(C(=O)Nc2ccc(S(=O)(=O)O)c3cc(S(=O)(=O)O)cc(S(=O)(=O)O)c23)cc1NC(=O)c1cccc(NC(=O)Nc2cccc(C(=O)Nc3cc(C(=O)Nc4ccc(S(=O)(=O)O)c5cc(S(=O)(=O)O)cc(S(=O)(=O)O)c45)ccc3C)c2)c1` [SURAMIN], the Phospholipidosis entry in the data set on Phospholipidosis [3] is “Active”.

As for `CN1CCN(C2=Nc3cc(Cl)ccc3N(C)n3cccc32)CC1`, the Phospholipidosis entry in the data set with Phospholipidosis [3] is given as “Active”.

In the case of `NC[C@@H]1CC[C@@H](N)[C@@H](O[C@H]2[C@H](O)[C@@H](O[C@H]3O[C@H](CO)[C@@H](O)[C@H](N)[C@H]3O)[C@H](N)C[C@@H]2N)O1` [DIBEKACIN], in the data set on Phospholipidosis [3], the Phospholipidosis result is on record as “Active”.

`CCN(CC)CCOc1ccc2c(c1)C(=O)c1cc(OCCN(CC)CC)ccc1-2` [TILORONE]: the Phospholipidosis result in the data set on Phospholipidosis [5] and with Phospholipidosis [3] was “Active” in each case.

As for `CCNC(C)Cc1cccc(C(F)(F)F)c1` (stereo unspecified) [FENFLURAMINE], the Phospholipidosis result in the data set with Phospholipidosis [2], in the data set with Phospholipidosis [8] and with Phospholipidosis [3] was “Active” in each case.

Regarding `CN1CCN(C(c2ccccc2)c2ccccc2)CC1` [CYCLIZINE], in the data set with Phospholipidosis [3], the Phospholipidosis entry is “Active”.

As for `CCOC(=O)C1N=C(c2ccccc2F)c2cc(Cl)ccc2NC1=O` (stereo unspecified) [ETHYL LOFLAZEPATE], the Phospholipidosis entry with Phospholipidosis [3] is given as “Active”.

For the compound `CN(C)CCC=C1c2ccccc2CCc2ccccc21` [AMITRIPTYLINE], the Phospholipidosis entry in the data set with Phospholipidosis [3] is given as “Active”.

For the compound GENTAMICIN, the Phospholipidosis entry in the data set on Phospholipidosis [5], in the data set on Phospholipidosis [2] and with Phospholipidosis [3] was “Active” throughout.

Regarding `CCN(CC)CCOc1ccc(C(O)(Cc2ccc(Cl)cc2)c2ccc(C)cc2)cc1` (stereo unspecified) [TRIPARANOL], the Phospholipidosis result in the data set on Phospholipidosis [1], with Phospholipidosis [7] and in the data set with Phospholipidosis [3] was “Active” in each case.

On to `CCN(CC)CCCC(C)Nc1ccnc2cc(Cl)ccc12` (stereo unspecified) [CHLOROQUINE], for which the Phospholipidosis entry with Phospholipidosis [5], with Phospholipidosis [1], with Phospholipidosis [2], in the data set on Phospholipidosis [9] and with Phospholipidosis [3] was “Active” throughout.

In the case of `CC(C)(N)Cc1ccc(Cl)cc1` [CHLORPHENTERMINE], the Phospholipidosis entry in the data set with Phospholipidosis [1], in the data set with Phospholipidosis [2], in the data set with Phospholipidosis [6] and in the data set on Phospholipidosis [3] was “Active” throughout.

On to `N=C(N)c1ccc(/C=C/c2ccc(C(=N)N)cc2)cc1` [STILBAMIDINE], for which, in the data set on Phospholipidosis [5], the Phospholipidosis entry is listed as “Active”.

With `CC/C(=C(\c1ccccc1)c1ccc(OCCN(C)C)cc1)c1ccccc1` [TAMOXIFEN], the Phospholipidosis entry with Phospholipidosis [3] is “Active”.

With `CCN(CC)Cc1cc(Nc2ccnc3cc(Cl)ccc23)ccc1O.Cl`, the Phospholipidosis result in the data set with Phospholipidosis [5] is “Active”.

Turning to `C1CCC(C(CC2CCCCN2)C2CCCCC2)CC1` (stereo unspecified) [PERHEXILINE], the Phospholipidosis entry in the data set on Phospholipidosis [5], with Phospholipidosis [1] and with Phospholipidosis [3] was “Active” in each case.

Turning to `O=C(NC1CCN(CCc2c[nH]c3ccccc23)CC1)c1ccccc1` [INDORAMIN], the Phospholipidosis result in the data set on Phospholipidosis [3] was “Active”.

`CN(C)CCCC1(c2ccc(F)cc2)OCc2cc(C#N)ccc21` (stereo unspecified) [CITALOPRAM]: the Phospholipidosis entry in the data set with Phospholipidosis [3] is recorded as “Active”.

For the compound `CCC[C@@H]1C[C@@H](C(=O)N[C@@H]([C@H]2O[C@H](SC)[C@H](O)[C@@H](O)[C@H]2O)[C@H](C)Cl)N(C)C1` [CLINDAMYCIN], the Phospholipidosis result in the data set on Phospholipidosis [2] and with Phospholipidosis [3] was “Active” in each case.

As for `Clc1ccccc1CNC[C@H]1CC[C@H](CNCc2ccccc2Cl)CC1`, the Phospholipidosis result in the data set on Phospholipidosis [1], in the data set with Phospholipidosis [6] and with Phospholipidosis [3] was “Active” throughout.

In the case of `CN(C)CCC=C1c2ccccc2C=Cc2c(Cl)cccc21`, the Phospholipidosis result with Phospholipidosis [3] was “Active”.

Turning to `FC(F)(F)c1ccc(-c2ccc(OCCN3CCCC3)cc2)cc1` [BOXIDINE], in the data set with Phospholipidosis [3], the Phospholipidosis result is given as “Active”.

As for `CN(C)CCCN1c2ccccc2Sc2ccc(Cl)cc21` [CHLORPROMAZINE], the Phospholipidosis result in the data set with Phospholipidosis [2] and with Phospholipidosis [3] was “Active” in each case.

For the origin of these results see ChEMBL document CHEMBL1615345, “Evaluation of a published in silico model and construction of a novel Bayesian model for predicting phospholipidosis inducing potential” (J Chem Inf Model, 2007).
